Test results as given in patent US6211244A, “Calcium receptor-active compounds” (priority 1995, dated 2001).
pEC50: −log10 of the molar value. Where a name gives a salt, the structure may show the parent alone.

What was measured:
[1] = biological target: T1, human calcium receptor (Homo sapiens, UniProt P41180, R990G); assay: increases in [Ca^2+ ]i in HEK-293 cells expressing the human calcium receptor (fura-2 loaded HEK 293/pHuPCaR4.0 cells), % activity; assay type: cell-based
T1 construct: expressed in transfected cells; host or cells: HEK 293
T1 sequence (P41180 20-1078 R990G): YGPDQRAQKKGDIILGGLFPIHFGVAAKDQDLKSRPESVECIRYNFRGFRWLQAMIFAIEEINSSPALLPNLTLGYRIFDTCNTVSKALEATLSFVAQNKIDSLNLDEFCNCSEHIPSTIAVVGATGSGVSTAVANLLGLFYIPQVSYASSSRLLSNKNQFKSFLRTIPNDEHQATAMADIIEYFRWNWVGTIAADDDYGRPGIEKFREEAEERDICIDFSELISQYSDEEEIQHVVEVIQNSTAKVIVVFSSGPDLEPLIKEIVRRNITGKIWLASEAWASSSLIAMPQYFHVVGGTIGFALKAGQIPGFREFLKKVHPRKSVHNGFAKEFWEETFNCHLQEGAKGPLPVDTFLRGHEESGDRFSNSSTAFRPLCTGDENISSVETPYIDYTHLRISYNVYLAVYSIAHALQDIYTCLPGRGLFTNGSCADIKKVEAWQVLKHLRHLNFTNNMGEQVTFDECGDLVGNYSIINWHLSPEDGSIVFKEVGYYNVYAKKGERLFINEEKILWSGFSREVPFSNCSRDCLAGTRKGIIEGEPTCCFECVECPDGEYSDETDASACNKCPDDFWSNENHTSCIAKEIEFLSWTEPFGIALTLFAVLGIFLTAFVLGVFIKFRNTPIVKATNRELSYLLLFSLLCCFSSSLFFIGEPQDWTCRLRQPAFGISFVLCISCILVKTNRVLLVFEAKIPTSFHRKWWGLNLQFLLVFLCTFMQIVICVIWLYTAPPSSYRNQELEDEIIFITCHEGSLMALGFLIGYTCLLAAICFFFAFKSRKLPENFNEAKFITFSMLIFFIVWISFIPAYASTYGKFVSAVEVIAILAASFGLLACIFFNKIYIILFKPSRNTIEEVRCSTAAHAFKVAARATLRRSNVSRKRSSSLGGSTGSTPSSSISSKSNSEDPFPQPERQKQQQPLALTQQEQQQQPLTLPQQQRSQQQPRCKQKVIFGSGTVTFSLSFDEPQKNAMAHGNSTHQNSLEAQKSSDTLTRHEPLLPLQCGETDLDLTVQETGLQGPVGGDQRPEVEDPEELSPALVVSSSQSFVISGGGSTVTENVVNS

[2] = test system: Parathyroid Cell Calcium Receptor; assay: EC50 in parathyroid cells or HEK 293/pHuPCaR4.0 cells loaded with fura-2; assay type: cell-based, calves and humans; conditions: parathyroid cells or HEK 293/pHuPCaR4.0, fura-2; cell type not given per value
Protocol: This section describes procedures used to obtain parathyroid cells from calves and humans, and to use the parathyroid cells to measure calcium receptor activity.
Human parathyroid glands, were obtained from patients undergoing surgical removal of parathyroid tissue for primary or uremic hyperparathyroidism (uremic HPT), and were treated similarly to bovine tissue.
Glands were trimmed of excess fat and connective tissue and then minced with fine scissors into cubes approximately 2-3 mm on a side. Dissociated parathyroid cells were prepared by collagenase digestion and then purified by centrifugation in Percoll buffer.
Primary culture also has the advantage that cells can be labeled with isotopes to near isotopic equilibrium, as is necessary for studies involving measurements of inositol phosphate metabolism.
ITS+ is a premixed solution containing insulin, transferrin, selenium, and bovine serum albumin (BSA)-linolenic acid (Collaborative Research, Bedford, Mass.). The cells were then transferred to plastic flasks (75 or 150 cm^2; Falcon) and incubated overnight at 37° C. in a humid atmosphere of 5% CO2. No serum is added to these overnight cultures, since its presence allows the cells to attach to the plastic, undergo proliferation, and dedifferentiate.
The cells were then pelleted, resuspended in the same buffer, but lacking the ester, and incubated a further 15 minutes at 37° C. The cells were subsequently washed twice with PCB containing 0.5 mM CaCl2 and 0.5% BSA and maintained at room temperature (about 20° C.). Immediately before use, the cells were diluted five-fold with prewarmed 0.5 mM CaCl2 -PCB to obtain a final BSA concentration of 0.1%. The concentration of cells in the cuvette used for fluorescence recording was 1-2×10^6 /ml.
The fluorescence of indicator-loaded cells was measured at 37° C. in a spectrofluorimeter (Biomedical Instrumentation Group, University of Pennsylvania, Philadelphia, Pa.) equipped with a thermostated cuvette holder and magnetic stirrer using excitation and emission wavelengths of 340 and 510 nm, respectively. […] To correct the calibration for dye leakage, cells were placed in the cuvette and stirred at 37° C. for 2-3 minutes. The cell suspension was then removed, the cells pelleted, and the supernatant returned to a clean cuvette. […] This estimate was subtracted from the apparent Fmin.
HEK 293 cells transfected with pHuPCaR4.0 were loaded with fura-2 by incubating the cells in Dulbecco's modified Eagle's media buffered with 20 mM HEPES containing about 5 μM […] for one hour at room temperature. Cell were then rinsed with Hank's balanced salt solution buffered with 20 mM HEPES containing 1 mM CaCl2 and 1 mM MgCl2. Compounds to be tested were then added to the cells and fluorescence was measured (excitation and emission wavelengths of 340 and 510 nm, respectively).

| Compound | % activity ([1]; 33 ng/mL) [%] | % activity ([1]; 330 ng/mL) [%] | pEC50 [2] | % activity ([1]; 3300 ng/mL) [%] |
| --- | --- | --- | --- | --- |
| CC(N[C@H](C)c1ccccc1)c1ccc2ccccc2c1 (stereo partly drawn) [Compound 4H, N-[1-(2-naphthyl)ethyl]-1-phenylethylamine] | 37 | 77 | ≤ 5.52 |  |
| COc1cccc([C@@H](C)NCCCc2cccc(F)c2)c1 [Compound 4N] | 65 | 100 | 6.10 |  |
| C[C@@H](NCc1ccc2ccccc2c1)c1cccc2ccccc12 [Compound 9C] | 82 | 104 | 6.22 |  |
| CC(C)C(N[C@H](C)c1cccc2ccccc12)c1ccc2ccccc2c1 (stereo partly drawn) [Compound 10F] | 84 | 96 | 6.05 |  |
| C[C@@H](NCCCc1ccccc1Cl)c1cccc2ccccc12 [Compound 12Z, N-3-(2-chlorophenyl)-1-propyl-(R)-1-(1-naphthyl) ethylamine hydrochloride] |  |  | 6.96 |  |
| CCCOc1ccc(CN[C@H](C)c2cccc3ccccc23)cc1 [Compound 13Q] | 46 | 95 | ~6.10 |  |
| C[C@@H](NCc1ccc(C(F)(F)F)cc1)c1cccc2ccccc12 [Compound 13S] | 87 | 102 | > 6.89 |  |
| C[C@@H](NCc1ccc2c(c1)OCCO2)c1cccc2ccccc12 [Compound 13X] | 65 | 102 | > 6.12 |  |
| COc1ccc([C@H](C)N[C@H](C)c2cccc3ccccc23)cc1 [Compound 14V] |  |  | 5.77 |  |
| COc1cccc(C(C)NC(C)c2cccc3ccccc23)c1 (stereo not drawn) [Compound 14Y] | 73 | 109 | 6.42 |  |
| C[C@@H](NCc1ccc(C(C)(C)C)cc1)c1cccc2ccccc12 [Compound 15G] | 80 | 113 | ~6.30 |  |
| COc1ccc(CN[C@H](C)c2cccc3ccccc23)cc1C [Compound 16Q] | 88 | 110 | 7.40 |  |
| COc1ccc(CN[C@H](C)c2cccc3ccccc23)cc1F [Compound 16T] | 88 | 97 | 7.40 |  |
| Cc1ccc(CN[C@H](C)c2cccc3ccccc23)cc1C [Compound 16V] | 102 | 114 | > 6.89 |  |
| CSc1ccc(CN[C@H](C)c2cccc3ccccc23)cc1 [Compound 16X] | 96 | 111 | 7.00 |  |
| COc1ccc([C@@H](C)N[C@H](C)c2cccc3ccccc23)cc1C.Cl [Compound 17P, (R)-N-(1-(4-Methoxy-3-methylphenyl)ethyl)-(R)-1-(1-naphthyl)ethylamine hydrochloride] | 86 | 101 | 7.40 |  |
| COc1cccc([C@@H](C)NC2CCN(Cc3ccccc3)CC2)c1 [Compound 20F] |  |  | > 6.00 |  |
| CCC(CCc1ccccc1)NC(C)c1cccc(OC)c1 (stereo not drawn) [Compound 20S] |  |  | 5.38 |  |
| C[C@H](CCc1cccc(C(F)(F)F)c1)N[C@@H](C)c1cccc2ccccc12 [Compound 25C, (S,R)-N-[4-(3-trifluoromethylphenyl)-2-butyl]-1-(1-naphthyl)ethylamine] |  |  | < 5.70 |  |
| C[C@H](CCc1cccc(C(F)(F)F)c1)N[C@H](C)c1cccc2ccccc12 [Compound 25D, (R,R)-N-[4-(3-trifluoromethylphenyl)-2-butyl]-1-(1-naphthyl)ethylamine] |  |  | 7.72 |  |
| COc1ccc([C@H](C)N[C@H](C)c2cccc3ccccc23)cc1C [Compound 25U] | 95 | 107 |  | 107 |
| COc1ccc([C@H](C)N[C@@H](C)c2cccc3ccccc23)cc1C [Compound 25V] | 43 | 59 |  | 89 |
| COc1ccc([C@@H](C)N[C@@H](C)c2cccc3ccccc23)cc1C [Compound 25W] | 42 | 69 |  | 95 |
